Paper PMC8368026, “Theaflavin binds to a druggable pocket of TMEM16A channel and inhibits lung adenocarcinoma cell viability” (The Journal of Biological Chemistry, 2021)
Substitutions are numbered along the chain they refer to.

Columns and labels:
Format in all cases: cell-based
TMEM16A [1] = target: T1, TMEM16A (Mus musculus, UniProt Q8BHY3); test: whole-cell patch clamp, recombinant channel in HEK293T cells; supported by mutagenesis
T1 construct: gene Ano1; mouse TMEM16A (NM_178642.5)
T1 sequence (Q8BHY3 1-960): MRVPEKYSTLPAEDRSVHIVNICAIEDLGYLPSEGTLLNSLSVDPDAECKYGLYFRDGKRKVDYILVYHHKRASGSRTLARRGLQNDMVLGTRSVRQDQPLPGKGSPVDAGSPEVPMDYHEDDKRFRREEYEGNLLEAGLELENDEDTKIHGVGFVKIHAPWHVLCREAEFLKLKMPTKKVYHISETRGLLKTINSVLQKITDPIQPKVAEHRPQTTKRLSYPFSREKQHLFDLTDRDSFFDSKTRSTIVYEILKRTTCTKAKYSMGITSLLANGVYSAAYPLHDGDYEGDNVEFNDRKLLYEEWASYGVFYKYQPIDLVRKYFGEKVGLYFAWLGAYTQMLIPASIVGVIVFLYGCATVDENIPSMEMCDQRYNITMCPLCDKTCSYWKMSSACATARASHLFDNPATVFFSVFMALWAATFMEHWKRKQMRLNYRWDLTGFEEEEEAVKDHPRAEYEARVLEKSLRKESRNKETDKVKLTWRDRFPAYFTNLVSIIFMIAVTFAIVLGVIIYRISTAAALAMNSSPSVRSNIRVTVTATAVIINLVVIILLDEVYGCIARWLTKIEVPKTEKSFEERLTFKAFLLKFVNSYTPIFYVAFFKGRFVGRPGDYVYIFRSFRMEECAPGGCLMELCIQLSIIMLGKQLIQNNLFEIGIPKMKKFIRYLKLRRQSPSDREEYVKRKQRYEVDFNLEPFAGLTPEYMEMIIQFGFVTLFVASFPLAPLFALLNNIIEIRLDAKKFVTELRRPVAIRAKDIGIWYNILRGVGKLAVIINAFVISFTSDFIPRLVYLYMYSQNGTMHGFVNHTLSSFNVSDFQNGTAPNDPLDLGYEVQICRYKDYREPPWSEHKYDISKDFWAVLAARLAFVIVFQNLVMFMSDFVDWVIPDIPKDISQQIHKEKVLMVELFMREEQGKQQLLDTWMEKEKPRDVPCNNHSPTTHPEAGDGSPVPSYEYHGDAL

TMEM16A [2] = target: T2, TMEM16A (Mus musculus, UniProt Q8BHY3, R535A); test: whole-cell patch clamp of mutant channel in HEK293T cells, […] TF; settings: HEK-293T
T2 construct: gene Ano1; mouse TMEM16A (NM_178642.5)
T2 sequence (Q8BHY3 1-960 R535A): T1 sequence (Q8BHY3 1-960) with R535A

TMEM16A [3] = target: T3, TMEM16A (Mus musculus, UniProt Q8BHY3, T539A); test: as above; settings: HEK-293T
T3 construct: gene Ano1; mouse TMEM16A (NM_178642.5)
T3 sequence (Q8BHY3 1-960 T539A): T1 sequence (Q8BHY3 1-960) with T539A

TMEM16A [4] = target: T4, TMEM16A (Mus musculus, UniProt Q8BHY3, K603A); test: as above; settings: HEK-293T
T4 construct: gene Ano1; mouse TMEM16A (NM_178642.5)
T4 sequence (Q8BHY3 1-960 K603A): T1 sequence (Q8BHY3 1-960) with K603A

inhibition at 10 µM (TMEM16A [2]): 71%
inhibition at 10 µM (TMEM16A [3]): 51%
inhibition at 10 µM (TMEM16A [4]): 54%
Compound: O=c1c(O)cc([C@H]2Oc3cc(O)cc(O)c3C[C@H]2O)cc2c([C@H]3Oc4cc(O)cc(O)c4C[C@H]3O)cc(O)c(O)c12 [TF, theaflavin]
IC50 (TMEM16A [1]): 0.75 ± 0.13 µM
